“Also recorded” adds a separate entry of the source.
Key:
C-26 tumor-bearing mice [1] = assay: Survival and body weight comparison of HDAC inhibitors, C-26 model; type: in vivo, CD2F1 mice; settings: vorinostat 50 mg/kg p.o. once daily, romidepsin 0.6 mg/kg i.p. twice weekly, from day 6
Description: In one aspect, tumors were established by subcutaneous injection of C-26 cells (0.5×10^6 cells in 0.1 ml) into the right flank of male CD2F1 mice (approximately 6 weeks of age; Harlan Laboratories, Indianapolis, Ind.)(11). Tumor-bearing mice, as well as tumor-free mice serving as non-cachectic controls, were randomized into groups that were treated with either AR-42 (50 mg/kg, p.o. by gavage, every other day; Arno Therapeutics, Inc., Flemington, N.J.) or vehicle (0.5% methylcellulose (w/v) and 0.1% Tween-80 (v/v) in sterile water) starting 6 days after cell injection. To investigate the effect of delayed treatment, treatments with drug and/or vehicle were started 6, 10 and 12 days after cancer cell injection.
In another aspect, the effects of AR-42 were compared to other HDAC inhibitors. […]
The effects of AR-42 were compared to other HDAC inhibitors (i.e., vorinostat and romidepsin) in C-26 tumor-bearing mice. Starting on day 6 after tumor cell injection, mice were treated continuously with AR-42 (50 mg/kg every other day, orally), vorinostat [50 mg/kg once daily, orally (13)], romidepsin [0.6 mg/kg twice weekly, i.p. (14)], or vehicle, until weight loss, as determined by daily body weight measurements and subtraction of tumor mass, reached 20% of starting weight. […]

Atrogin-1/MAFbx mRNA = assay: qPCR of gastrocnemius muscle, C-26 model: Atrogin-1; type: in vivo, CD2F1 mice; settings: C-26 tumor-bearing mice, 15 days after tumor cell injection, tumor-bearing/vehicle 29.4±3.5-fold, mean±S.D.
Description: (§1) Total RNA was isolated from homogenized gastrocnemius muscles (n=3/group) with TRIzol reagent (Life Technologies, Carlsbad, Calif.) and then purified using the RNAeasy Mini Kit (Qiagen, Valencia, Calif.). qRT-PCR was performed as described previously (42) by using the Bio-Rad CFX96 Real-Time PCR Detection System with iQ SYBR Green Supermix (Bio-Rad, Hercules, Calif.). RNA-seq library generation and data analysis were performed at The Ohio State University Comprehensive Cancer Center (OSUCCC) Nucleic Acid Shared Resource.
(§2) AR-42 was able to restore expression of Atrogin-1 (2.7±0.7-fold) and MuRF1 (1.1±0.2-fold) mRNA to basal levels […].

MuRF1 mRNA = assay: qPCR of gastrocnemius muscle, C-26 model: MuRF1; type: in vivo, CD2F1 mice; settings: C-26 tumor-bearing mice, 15 days after tumor cell injection, tumor-bearing/vehicle 25.8±3.9-fold, mean±S.D.
Description: as §1, §2

C-26 tumor-bearing mice [2] = settings: literature reference (33); cited from earlier work

Row | Compound | protective effect on body weight / attenuation of cachexia-induced weight loss (C-26 tumor-bearing mice [1]) | Atrogin-1 mRNA level relative to tumor-free/vehicle control (Atrogin-1/MAFbx mRNA) [fold] | MuRF1 mRNA level relative to tumor-free/vehicle control (MuRF1 mRNA) [fold] | reversal of muscle loss in C-26 tumor-bearing mice (C-26 tumor-bearing mice [2])
1 | O=C(CCCCCCC(=O)Nc1ccccc1)NO [vorinostat] | limited or no appreciable protective effects; also recorded: ineffective | 9.6±1.8 | 5.5±1.1 | –
2 | C/C=C1\NC(=O)[C@H]2CSSCC/C=C/[C@H](CC(=O)N[C@H](C(C)C)C(=O)N2)OC(=O)[C@H](C(C)C)NC1=O [romidepsin] | – | 19.6±3.1 | 14.6±3.3 | –
3 | CCCC(CCC)C(=O)O [valproic acid] | – | – | – | could not reverse muscle loss
4 | CC(/C=C/C(=O)NO)=C\[C@@H](C)C(=O)c1ccc(N(C)C)cc1 [trichostatin-A] | – | – | – | could not reverse muscle loss

Source: US11219607B2, “Methods for suppressing cancer-related cachexia” (Ohio State Innovation Foundation, priority 2013, dated 2022)
